Results: US20100216706A1, “Ghrelin Protects Substantia Nigra Dopamine Neurons” (priority 2007, published 2010)
No end group written: not given here. *: point of attachment. Octanoyl = CCCCCCCC(=O)*

Experiments:
striatal dopamine = experiment: Striatal DA concentration after ghrelin injection (HPLC); assay type: in vivo, mice
Protocol: The samples were subsequently thawed in 0.4 ml of chilled 0.1 M perchloric acid and sonicated. Aliquots were taken for protein quantification using a spectrophotometric assay. Other aliquots were centrifuged, and DA levels were measured in supernatants by high pressure liquid chromatography (HPLC) with electrochemical detection. Concentrations of DA and metabolites were expressed as ng/mg protein (mean±SEM).
To further examine the effect of ghrelin on the nigrostriatal system, striatal DA concentration after ghrelin injection in wild-type mice was measured using HPLC.

TH neurons in the SNpc = experiment: MPTP-induced TH cell loss in the SNpc (stereology, optical fractionator); assay type: in vivo, mice
Excerpt: Control animals were given saline. Animals were sacrificed and perfused 7 days later and processed for immunohistochemistry or HPLC for dopamine (DA) and metabolites. n=8-10 for ghrelin wt and ko mice; n=6 for GHSR wt/wt, homo/wt and homo/TG.
TH cell quantification: Free floating sections were stained with TH (1:5000, Chemicon International) and visualized with DAB using standard procedures.
Unbiased stereology methods were used to quantify TH immunoreactive cells in the SNpc. Cells were visualized by a Zeiss microscope and relayed via a MicroFibre digital camera (www(dot)optronics(dot)com) to a computer where they were counted using the optical fractionator with the sophisticated Stereolnvestigator software (MicroBrightField, Williston, Vt., USA). Every fourth section was collected through the SNpc, and TH cells were counted in grids randomly positioned by the software in the outlined counting area through all optical planes, thus creating a 3 dimensional counting area.
The observation that ghrelin promotes SNpc DA neuronal function, mitochondrial respiration and number raises the possibility that ghrelin may protect nigrostriatal dopaminergic system during increased cellular stress. […] In brief, mice were treated with daily IP injections of exogenous ghrelin (10 nmols) or saline for 14 days. Mice were injected immediately before the dark phase, and food was removed overnight since calorie intake and postprandial increases in glucose and insulin can suppress the action of ghrelin (Cummings et al., 2006, Physiol Behav 89: 71-84). Both ghrelin and saline treated mice were given 3 grams of standard chow the following morning at 9 am. […] After the subsequent 7 days of treatment (saline or ghrelin), TH immunoreactive neurons were counted blind by two independent researchers using the non-biased optical fractionator on the stereology program, Stereoinvestigator.

[1] = tested on: UCP2-dependent mitochondrial respiration; experiment: Uncoupled mitochondrial respiration in pooled midbrain of UCP2 wt or ko mice; assay type: in vivo; details: ghrelin IP 30 nmol, 3 hours
Protocol: Rats were used as the mitochondrial yield after isolation is much higher than the yield from mice. Mitochondrial respiration was also examined in the pooled midbrain of UCP2 ko and wt mice (3 pooled brains), 3 hours after ghrelin injection (IP 30 nmol).
Mitochondria were pooled from the SN-VTA (4 animals=1, total n=4) and isolated by differential centrifugation. Because of the size of the tissue dissected, it was impossible to solely isolate only the SNc, and as such the results are reported as SN-VTA. Briefly, the SN-VTA was rapidly dissected and homogenized in isolation buffer (215 mM Mannitol, 75 mM sucrose, 0.1% fatty acid free BSA, 20 mM Hepes, 1 mM EGTA, pH adjusted to 7.2 with KOH). The homogenate was spun at 1300×g for 3 minutes. The supernatant was removed, and the pellet was resuspended with isolation buffer and spun again at 1300×g for 3 minutes. The 2 sets of supernatant from each sample were topped off with isolation buffer and spun at 13000×g for 10 minutes. The supernatant was discarded, and this step was repeated. After this second spin at 13000×g, the supernatant was discarded, and the pellets were resuspended with isolation buffer without EGTA and spun at 10000×g for 10 minutes. The final mitochondrial pellet was resuspended with 50 μl of isolation buffer without EGTA. Protein concentrations were determined with a BCA protein assay kit (Pierce, Rockford, Ill., USA).
Mitochondrial respirations were assessed using a Clark-type oxygen electrode (Hansatech Instruments, Norfolk, England) at 37° C. with pyruvate and malate (5 mM and 2.5 mM) as oxidative substrates in respiration buffer (215 mM Mannitol, 75 mM sucrose, 0.1% fatty acid free BSA, 20 mM Hepes, 2 mM MgC1, 2.5 mM KH2PO4, pH adjusted to 7.2 with KOH). Following the addition of ADP and oligomycin, UCP-mediated proton conductance was measured as increased fatty acid-induced respiration (Echtay et al., 2002), which was then compared to state 4 respiration induced by oligomycin, an inhibitor of H^+ transporting ATP synthase.
To test whether UCP2 is important in ghrelin-induced midbrain respiration, mitochondria were isolated from the midbrain of pooled UCP2 wt or ko mice treated with ghrelin or saline, and uncoupled respiration was measured.

SNpc DA neurons = experiment: Whole-cell patch clamp, action potential firing of SNpc DA neurons in brain slices; assay type: cell-based, mice and rats
Protocol: Patch clamp recordings from VTA dopamine neurons: Brain slices (300 μm) containing the substantia nigra pars compacta (SNpc), were cut on a vibratome from 2-3 week old male and female mice (n=9) and rats (n=5). Briefly, animals were anesthetized with Nembutal (80 milligram/kilogram body weight) and then decapitated. The brains were rapidly removed and immersed in cold (4° C.) oxygenated bath solution (containing (mM): NaCl 150; KCl 2.5; CaCl2 2; MgCl2 2; Hepes 10; and glucose 10, pH 7.3 with NaOH). After being trimmed to contain only the SNpc, slices were transferred to a recording chamber where they were constantly perfused with bath solution at 2 milliliter/minute. Dopamine neurons in the SNpc were identified by presence of a large Ih current (>100 pA) evoked by hyperpolarizing voltage steps from −50 to −120 mV for 2 seconds. This approach identifies dopaminergic cells with >90% accuracy (Abizaid et al., 2006, J Clin Invest. 116(12):3229-39. Epub 2006 Oct. 19). In brain slices, whole-cell current clamp was used to observe spontaneous action potentials. Slices were maintained at 33° C. and perfused continuously with ASCF (bubbled with 5% CO2 and 95% O2) containing (in mM): NaCl, 124; KCl, 3; CaCl2, 2; MgCl2, 2; NaH2PO4, 1.23; NaHCO3, 26; glucose, 10, pH 7.4 with NaOH. Ghrelin was applied to the recording chamber via bath application. The pipette solution contained (mM): gluconic acid 140; CaCl2, MgCl2 2; EGTA 1; HEPES 10; Mg-ATP; 4, and Na2-GTP; 0.5, pH 7.3 with KOH
To address this question, an experiment using whole-cell patch clamp electrophysiology was performed to investigate whether ghrelin directly activates SNpc DA neurons. DA neurons (n=11) in the SNpc were identified based on their characteristic Ih currents (Johnson et al., 1992, J Neurosci 12: 483-8). Spontaneous action potentials were recorded under current clamp for at least 10 minutes of stable recording. Ghrelin (1-3 μmol) was applied via bath application.

ghrelin (GSS(Octanoyl)FLSPEHQRVQQRKESKKPPAKLQPR; listed as Homo sapiens) [28 amino acid acyl-peptide esterified with octanoic acid on Ser3; endogenous ligand of GHSR]
Effect on DA concentration in ghsr−/− mice (striatal dopamine; ghsr−/− mice): no effect | DA concentration in ventral striata (striatal dopamine; wild-type mice after ghrelin injection): 126.5±7.26 ng/mg protein | DA concentration in dorsal striatum (striatal dopamine; wild-type mice after ghrelin injection, saline 119.4±9.6): 153±4.6 ng/mg protein | Total TH neurons in SNpc, ghr/MPTP (TH neurons in the SNpc; ghrelin 10 nmols IP daily 14 days, MPTP 30 mg/kg IP on day 7): 7836±285 | Total TH neurons in SNpc, ghr/sal (TH neurons in the SNpc; ghrelin 10 nmols IP daily 14 days, saline on day 7, sal/sal 11283±342): 11616±318 | Dopamine cell loss compared to control mice, ghrelin treatment (TH neurons in the SNpc; ghrelin 14 days, MPTP on day 7): 33% | SNpc volume, ghr/MPTP (TH neurons in the SNpc; ghrelin 14 days, MPTP on day 7): not significantly different | SNpc volume, ghr/sal vs sal/sal (TH neurons in the SNpc; ghrelin 14 days, saline on day 7): not significantly different | Basal uncoupled respiration after oligomycin, UCP2 ko mice ([1]; ko saline 34.2±2.6): 39.2±0.4 | Mitochondrial respiration after palmitate, UCP2 ko mice ([1]; ko saline 96.0±7.5): 109.7±2.9 | Basal uncoupled respiration after oligomycin, UCP2 wt mice ([1]; wt saline 32.7±1.6): 41.5±1.9 | Mitochondrial respiration after palmitate, UCP2 wt mice ([1]; wt saline 106.3±5.3): 134.5±4.5 | FCCP-driven respiration, UCP2 wt mice ([1]; wt saline 352±14.1): 472±12.7 | Action potential frequency (SNpc DA neurons; ghrelin 1-3 μmol bath application, control 100%): 131.9%±17.5 | Identified DA neurons that responded (SNpc DA neurons; ghrelin bath application): 10 of 11 | Action potential frequency after washout (SNpc DA neurons; washout of ghrelin, control 100%): 101.9%±4.6
